Experimental data taken from patent publication US4588822A, “Physiologically active substances SS 12538, their preparation and a novel microorganism producing same” (SS Pharmaceutical Co., Ltd., priority 1982, dated 1986).
Converted amounts (≈) assume the structure as drawn. Where two headings read alike, the source gives them in different places.

Key:
mongrel dogs = assay: Vasodilating activity in anesthetized mongrel dogs (coronary blood flow, blood pressure, heart rate after dosing into the vein); assay type: in vivo, dog (mongrel); details: for Blood Pressure Duration / Blood Pressure Reduction / Coronary Blood Flow Duration / Coronary Blood Flow Increase / Heart Rate Reduction: i.v., dog; for titer relative to dipyridamol: compared with currently employed dipyridamol
Method: 4 male mongrel dogs, weighing 15-25 Kg, were provided as laboratory animals and were anesthesized with sodium pentobarbital (30 mg/kg i.v.). Thereafter, the left circumflex coronary artery was exposed under artificial respiration and a probe of an electromagnetic flow meter was attached. A polyethylene cannula was inserted into the left femoral artery.
Test compounds were dissolved in a small amount of dimethyl sulfoxide and diluted with a sterilized physiological saline for injection, followed by dosing it into the vein.
Coronary blood was measured by means of the electromagnetic flow meter and the blood pressure was determined from the polyethylene cannule through a pressure transducer. Also, heart rate was measured by an instantaneous pulse meter from RR intervals of an electrocardiogram. Each parameter was recorded on a polygraph. Changes of these parameters prior to and after administration of each compound were observed.
In accordance with the procedure as used with SS 12538A, the vasodilating activity of SS 12538B was determined.
In the same manner as in the case of SS 12538A, the vasodilating activity of SS 12538C was determined with the results shown in Table 5.

[1] = system: Bacillus subtilis ATCC 6633; assay: Antibacterial activity (MIC), Bacillus subtilis ATCC 6633; assay type: cell-based
Description: (§1) Minimum inhibitory concentration (MIC) of the physiologically active substance SS 12538A against various microorganisms are shown in FIG. 2.
(§2) Minimum inhibitory concentration (MIC) of the physiologically active substance SS 12538B against various microorganisms are shown in Table 4 below.
(§3) Minimum inhibitory concentration (MIC) of the physiologically active substance SS 12538C against various microorganisms are shown in Table 6 below.

Bacillus cereus IID 871 = assay: Antibacterial activity (MIC), Bacillus cereus IID 871; assay type: cell-based
Description: as §1, §2, §3

[2] = system: Micrococcus lysodeikticus IFO 3333; assay: Antibacterial activity (MIC), Micrococcus lysodeikticus IFO 3333; assay type: cell-based; details: Micrococcus luteus
Description: as §1, §2, §3

[3] = system: Staphylococcus aureus ATCC 6538P; assay: Antibacterial activity (MIC), Staphylococcus aureus ATCC 6538P; assay type: cell-based; details: ATCC6538P, read-out: Minimum Inhibitory Concentration MIC
Description: as §1, §2, §3

[4] = system: Staphylococcus epidermidis ATCC 12228; assay: Antibacterial activity (MIC), Staphylococcus epidermidis ATCC 12228; assay type: cell-based
Description: as §1, §2, §3

Escherichia coli 0-1 = assay: Antibacterial activity (MIC), Escherichia coli 0-1; assay type: cell-based
Description: as §1, §2, §3

[5] = system: Klebsiella pneumoniae ATCC 10031; assay: Antibacterial activity (MIC), Klebsiella pneumoniae ATCC 10031; assay type: cell-based
Description: as §1, §2, §3

[6] = system: Pseudomonas aeruginosa IFO 13736; assay: Antibacterial activity (MIC), Pseudomonas aeruginosa IFO 13736; assay type: cell-based
Description: as §1, §2, §3

[7] = system: Candida albicans ATCC 10231; assay: Antifungal activity (MIC), Candida albicans ATCC 10231; assay type: cell-based
Description: as §1, §2, §3

[8] = system: Saccharomyces cerevisiae ATCC 9763; assay: Antifungal activity (MIC), Saccharomyces cerevisiae ATCC 9763; assay type: cell-based
Description: as §1, §2, §3

[9] = system: Aspergillus niger ATCC 9642; assay: Antifungal activity (MIC), Aspergillus niger ATCC 9642; assay type: cell-based
Description: as §1, §2, §3

[10] = system: Trichophyton mentagrophytes QM 248; assay: Antifungal activity (MIC), Trichophyton mentagrophytes QM 248; assay type: cell-based
Description: as §1, §2, §3

[11] = system: Microsporum gypseum IFO 8231; assay: Antifungal activity (MIC), Microsporum gypseum IFO 8231; assay type: cell-based; details: Nannizzia gypsea
Description: as §1, §2, §3

Solubilities in solvents = assay type: physicochemical; details: for Solubility in organic solvents: chloroform, ethyl acetate, acetone, ethyl ether, ethanol, methanol, pyridine, benzene and dimethyl sulfoxide
[12] = ATCC6633, Bacillus subtilis ATCC 6633, read-out: Minimum Inhibitory Concentration MIC
[13] = IID871, Bacillus cereus IID 871, read-out: Minimum Inhibitory Concentration MIC
[14] = IFO3333, Micrococcus lysodeikticus IFO 3333, read-out: Minimum Inhibitory Concentration MIC
[15] = Staphylococcus aureus ATCC 6538P
[16] = ATCC12228, Staphylococcus epidermidis ATCC 12228, read-out: Minimum Inhibitory Concentration MIC
[17] = 01, Escherichia coli 0-1, read-out: Minimum Inhibitory Concentration MIC
[18] = ATCC10031, Klebsiella pneumoniae ATCC 10031, read-out: Minimum Inhibitory Concentration MIC
[19] = IFO13736, Pseudomonas aeruginosa IFO 13736, read-out: Minimum Inhibitory Concentration MIC
[20] = ATCC10231, Candida albicans ATCC 10231, read-out: Minimum Inhibitory Concentration MIC
[21] = ATCC9763, Saccharomyces cerevisiae ATCC 9763, read-out: Minimum Inhibitory Concentration MIC
[22] = ATCC9642, Aspergillus niger ATCC 9642, read-out: Minimum Inhibitory Concentration MIC
[23] = QM248, Trichophyton mentagrophytes QM 248, read-out: Minimum Inhibitory Concentration MIC
[24] = IFO8231, Microsporum gypseum IFO 8231, read-out: Minimum Inhibitory Concentration MIC

Row | MIC [1, 12] | MIC (Bacillus cereus IID 871; [13]) | Solubility in organic solvents (Solubilities in solvents) | Solubility in water (Solubilities in solvents) | Compound | titer relative to dipyridamol (mongrel dogs) | Blood Pressure Duration (mongrel dogs; dose 3 μg/kg) | Blood Pressure Reduction (mongrel dogs; dose 3 μg/kg) | Coronary Blood Flow Duration (mongrel dogs; dose 3 μg/kg) | Coronary Blood Flow Increase (mongrel dogs; dose 3 μg/kg) | Heart Rate Reduction (mongrel dogs; dose 3 μg/kg) | Blood Pressure Duration (mongrel dogs; dose 10 μg/kg) | Blood Pressure Reduction (mongrel dogs; dose 10 μg/kg) | Coronary Blood Flow Duration (mongrel dogs; dose 10 μg/kg) | Coronary Blood Flow Increase (mongrel dogs; dose 10 μg/kg) | Heart Rate Reduction (mongrel dogs; dose 10 μg/kg) | Blood Pressure Duration (mongrel dogs; dose 30 μg/kg) | Blood Pressure Reduction (mongrel dogs; dose 30 μg/kg) | Coronary Blood Flow Duration (mongrel dogs; dose 30 μg/kg) | Coronary Blood Flow Increase (mongrel dogs; dose 30 μg/kg) | Heart Rate Reduction (mongrel dogs; dose 30 μg/kg) | other results
1 |  |  |  |  | OCCN(CCO)c1nc(N2CCCCC2)c2nc(N(CCO)CCO)nc(N3CCCCC3)c2n1 [Dipyridamol, dipyridamol, reference compound] |  |  |  |  |  |  |  |  |  |  |  |  |  |  |  |  | Blood Pressure Duration (mongrel dogs; dose 300 μg/kg): 16 min; Blood Pressure Reduction (mongrel dogs; dose 300 μg/kg): 13.2%; Coronary Blood Flow Duration (mongrel dogs; dose 300 μg/kg): 20 min; Coronary Blood Flow Increase (mongrel dogs; dose 300 μg/kg): 135.7%; Heart Rate Reduction (mongrel dogs; dose 300 μg/kg): 0%
2 | > 100 µg/mL | 12.5 µg/mL (≈ 31.2 µM) | Soluble | sparingly soluble | CC=C(C)C(O)C(C)C=C(C)C=CCC(C)=CCc1oc(OC)c(C)c(=O)c1C (stereo not drawn) [SS 12538A] | about 30 times | 7 min | 4.9% | 10 min | 17.1% | 2.3% | 10 min | 12.6% | 20 min | 168.6% | 2.9% | 30 min | 28.7% | 40 min | 441.3% | 1.8% | MIC [2, 14]: 25 µg/mL (≈ 62.4 µM); MIC [3, 15]: > 100 µg/mL; MIC [4, 16]: < 6.25 µg/mL; MIC (Escherichia coli 0-1; [17]): > 100 µg/mL; MIC [5, 18]: > 100 µg/mL; MIC [6, 19]: > 100 µg/mL; MIC [7, 20]: > 100 µg/mL; MIC [8, 21]: > 100 µg/mL; MIC [9, 22]: > 100 µg/mL; MIC [10, 23]: > 100 µg/mL; MIC [11, 24]: < 6.25 µg/mL
3 | 50 µg/mL (≈ 129 µM) | 50 µg/mL (≈ 129 µM) | Soluble | sparingly soluble | CC=C(C)C(O)C(C)C=C(C)C=CCC(C)=CCc1oc(OC)cc(=O)c1C (stereo not drawn) [SS 12538B] | about 30 times | 6 min | 7.5% | 10 min | 103.3% | 2.0% | 20 min | 27.7% | 15 min | 143.8% | 13.0% |  |  |  |  |  | MIC [2, 14]: 25 µg/mL (≈ 64.7 µM); MIC [3, 15]: 25 µg/mL (≈ 64.7 µM); MIC [4, 16]: 25 µg/mL (≈ 64.7 µM); MIC (Escherichia coli 0-1; [17]): > 100 µg/mL; MIC [5, 18]: > 100 µg/mL; MIC [6, 19]: > 100 µg/mL; MIC [7, 20]: > 100 µg/mL; MIC [8, 21]: > 100 µg/mL; MIC [9, 22]: > 100 µg/mL; MIC [10, 23]: 25 µg/mL (≈ 64.7 µM); MIC [11, 24]: 100 µg/mL (≈ 259 µM)

Row | Compound | MIC [1, 12] | MIC (Bacillus cereus IID 871; [13]) | Solubility in organic solvents (Solubilities in solvents) | Solubility in water (Solubilities in solvents) | titer relative to dipyridamol (mongrel dogs) | Blood Pressure Duration (mongrel dogs; dose 3 μg/kg) | Blood Pressure Reduction (mongrel dogs; dose 3 μg/kg) | Coronary Blood Flow Duration (mongrel dogs; dose 3 μg/kg) | Coronary Blood Flow Increase (mongrel dogs; dose 3 μg/kg) | Heart Rate Reduction (mongrel dogs; dose 3 μg/kg) | Blood Pressure Duration (mongrel dogs; dose 10 μg/kg) | Blood Pressure Reduction (mongrel dogs; dose 10 μg/kg) | Coronary Blood Flow Duration (mongrel dogs; dose 10 μg/kg) | Coronary Blood Flow Increase (mongrel dogs; dose 10 μg/kg) | Heart Rate Reduction (mongrel dogs; dose 10 μg/kg) | Blood Pressure Duration (mongrel dogs; dose 30 μg/kg) | Blood Pressure Reduction (mongrel dogs; dose 30 μg/kg) | Coronary Blood Flow Duration (mongrel dogs; dose 30 μg/kg) | Coronary Blood Flow Increase (mongrel dogs; dose 30 μg/kg) | Heart Rate Reduction (mongrel dogs; dose 30 μg/kg) | other results
4 | CC=C(C)C(O)C(C)C=C(C)C=CCC(C)=CCc1oc(OC)c(CC)c(=O)c1C (stereo not drawn) [SS 12538C] |  |  | Soluble | sparingly soluble | about 3 times |  |  |  |  |  | 0 min | 0% | 5 min | 30.0% | 0% | 10 min | 2.9% | 10 min | 60.0% | 0% | Blood Pressure Duration (mongrel dogs; dose 100 μg/kg): 15 min; Blood Pressure Reduction (mongrel dogs; dose 100 μg/kg): 8.5%; Coronary Blood Flow Duration (mongrel dogs; dose 100 μg/kg): 15 min; Coronary Blood Flow Increase (mongrel dogs; dose 100 μg/kg): 130.0%; Heart Rate Reduction (mongrel dogs; dose 100 μg/kg): 10.1%; MIC ([1]; Bacillus subtilis, ATCC6633, read-out: Minimum Inhibitory Concentration MIC): > 100 µg/mL; MIC (Bacillus cereus IID 871; Bacillus cereus, IID871, read-out: Minimum Inhibitory Concentration MIC): 25 µg/mL (≈ 60.3 µM); MIC ([2]; IFO3333, read-out: Minimum Inhibitory Concentration MIC): 12.5 µg/mL (≈ 30.2 µM); MIC ([3]; Staphylococcus aureus): 100 µg/mL (≈ 241 µM); MIC ([4]; Staphylococcus epidermidis, ATCC12228, read-out: Minimum Inhibitory Concentration MIC): 25 µg/mL (≈ 60.3 µM); MIC (Escherichia coli 0-1; Escherichia coli, 01, read-out: Minimum Inhibitory Concentration MIC): > 100 µg/mL; MIC ([5]; Klebsiella pneumoniae, ATCC10031, read-out: Minimum Inhibitory Concentration MIC): > 100 µg/mL; MIC ([6]; Pseudomonas aeruginosa, IFO13736, read-out: Minimum Inhibitory Concentration MIC): > 100 µg/mL; MIC ([7]; Candida albicans, ATCC10231, read-out: Minimum Inhibitory Concentration MIC): > 100 µg/mL; MIC ([8]; Saccharomyces cerevisiae, ATCC9763, read-out: Minimum Inhibitory Concentration MIC): > 100 µg/mL; MIC ([9]; Aspergillus niger, ATCC9642, read-out: Minimum Inhibitory Concentration MIC): > 100 µg/mL; MIC ([10]; Trichophyton mentagrophytes, QM248, read-out: Minimum Inhibitory Concentration MIC): 50 µg/mL (≈ 121 µM); MIC ([11]; IFO8231, read-out: Minimum Inhibitory Concentration MIC): > 100 µg/mL
